For assay [1], the target named is IRAK4 (Homo sapiens (Human), UniProt Q9NWZ3). Put plainly: IRAK4 Inhibition Assay. The class given is biochemical. As to conditions: ATP 500 μM; IRAK4 0.6 nM; 60 min room temperature. Put shortly:
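Reaction started by combining IRAK4 with substrates and compound, run 60 min at room temperature and stopped with 35 mM EDTA. Fluorescent substrate and phosphorylated product were separated electrophoretically on a Caliper LabChip; inhibition normalized to no-enzyme (100%) and vehicle-only (0%) controls.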

Assay [2] concerns the target JAK3 kinase (Homo sapiens (Human), UniProt P52333). Description: JAK3 Homogeneous Time Resolved Fluorescence (HTRF) Assay. The class given is binding. The note with it: for IC50: competition binding with fluorescein-labeled ATP competitive probe; for Ratio of JAK3 IC50 to IRAK4 IC50: selectivity for IRAK4 over JAK3. In outline:
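TR-FRET competition binding: 1 nM His- or GST-tagged JAK3 with 0.2 nM Tb-labeled anti-tag antibody, fluorescein ATP-competitive probe at its Kd, and compound for one hour. FRET read at 495/520 nm, normalized to no-compound signal. IC50 from 11 concentrations, 4-parameter logistic fit.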
A general note: TR-FRET usually uses a lanthanide donor and a delayed reading to cut background.

Chain of IRAK4 (Q9NWZ3 whole entry, species assumed): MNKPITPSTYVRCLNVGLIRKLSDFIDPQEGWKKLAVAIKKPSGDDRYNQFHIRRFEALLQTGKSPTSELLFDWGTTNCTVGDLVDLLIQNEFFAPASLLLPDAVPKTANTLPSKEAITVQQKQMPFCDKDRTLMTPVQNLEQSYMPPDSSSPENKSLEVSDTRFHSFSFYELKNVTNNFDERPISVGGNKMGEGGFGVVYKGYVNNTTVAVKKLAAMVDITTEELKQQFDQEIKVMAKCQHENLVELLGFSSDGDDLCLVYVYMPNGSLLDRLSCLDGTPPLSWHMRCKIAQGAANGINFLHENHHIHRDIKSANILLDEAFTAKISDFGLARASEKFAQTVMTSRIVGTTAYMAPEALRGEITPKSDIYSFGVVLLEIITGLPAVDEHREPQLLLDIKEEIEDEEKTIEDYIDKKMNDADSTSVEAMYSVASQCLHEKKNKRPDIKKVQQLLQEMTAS
Chain of JAK3 kinase (P52333 whole entry): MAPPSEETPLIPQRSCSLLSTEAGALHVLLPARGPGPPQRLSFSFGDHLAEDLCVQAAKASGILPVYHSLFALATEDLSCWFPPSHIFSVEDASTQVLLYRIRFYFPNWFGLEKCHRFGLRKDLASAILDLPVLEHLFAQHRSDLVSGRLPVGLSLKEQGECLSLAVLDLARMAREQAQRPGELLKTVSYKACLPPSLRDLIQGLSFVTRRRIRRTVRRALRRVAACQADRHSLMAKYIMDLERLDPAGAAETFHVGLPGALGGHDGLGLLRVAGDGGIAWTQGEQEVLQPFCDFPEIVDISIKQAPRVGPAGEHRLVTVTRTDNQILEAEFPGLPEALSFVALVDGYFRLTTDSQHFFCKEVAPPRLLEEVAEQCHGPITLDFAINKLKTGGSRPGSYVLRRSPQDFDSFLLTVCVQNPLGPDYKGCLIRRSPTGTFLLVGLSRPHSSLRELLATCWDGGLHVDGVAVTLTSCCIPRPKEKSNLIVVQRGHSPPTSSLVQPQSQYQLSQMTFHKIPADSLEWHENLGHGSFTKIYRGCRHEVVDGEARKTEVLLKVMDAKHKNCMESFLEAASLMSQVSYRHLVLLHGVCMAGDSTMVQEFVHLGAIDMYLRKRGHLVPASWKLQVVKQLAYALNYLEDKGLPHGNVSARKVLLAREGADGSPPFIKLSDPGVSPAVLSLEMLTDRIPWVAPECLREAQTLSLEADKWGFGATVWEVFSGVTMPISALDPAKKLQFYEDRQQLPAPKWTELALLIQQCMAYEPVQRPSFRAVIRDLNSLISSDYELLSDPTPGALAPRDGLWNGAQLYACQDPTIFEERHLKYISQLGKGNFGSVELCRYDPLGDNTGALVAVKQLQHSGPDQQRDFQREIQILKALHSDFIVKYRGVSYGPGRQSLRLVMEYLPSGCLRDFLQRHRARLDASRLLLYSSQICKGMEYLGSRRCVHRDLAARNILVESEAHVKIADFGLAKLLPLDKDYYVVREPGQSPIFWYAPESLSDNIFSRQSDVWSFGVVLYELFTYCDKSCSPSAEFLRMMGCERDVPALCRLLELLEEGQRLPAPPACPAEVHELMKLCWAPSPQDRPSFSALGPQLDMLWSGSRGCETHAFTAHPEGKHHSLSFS

For orientation: IC50 means the concentration needed to halve the response being measured. Turning to `CC(=O)N[C@H]1CC[C@H](NC(=O)c2cnn3cc(-c4ccc(C(N)=O)cc4)cc3c2NC(C)C)CC1` [Example 74, N-((1r,4r)-4-acetamidocyclohexyl)-6-(4-carbamoylphenyl)-4-(isopropylamino)pyrrolo[1,2-b] pyridazine-3-carboxamide], the IC50 in assay [1] amounted to 0.096 µM. Further, in assay [2], the half-inhibitory concentration (IC50) was > 50 µM and the “Ratio of JAK3 IC50 to IRAK4 IC50” value is >521.

Consider `CC(C)Nc1c(C(=O)NC[C@@H](F)C(C)(C)O)cnc2cc(-c3cnn(C)c3)nn12` [Example 126, (R)—N-(2-fluoro-3-hydroxy-3-methylbutyl)-7-(isopropylamino)-2-(1-methyl-1H-pyrazol-4-yl)pyrazolo[1,5-a]pyrimidine-6-carboxamide], for which, in assay [1], the IC50 came to 0.24 µM. In assay [2], the IC50 is > 50 µM and the “Ratio of JAK3 IC50 to IRAK4 IC50” value is given as >208.

As to `Nc1c(C(=O)NCCN2CCOCC2)cnn2cc(-c3ccncc3F)cc12` [Example 79, 4-amino-6-(3-fluoropyridin-4-yl)-N-(2-morpholinoethyl)pyrrolo[1,2-b]pyridazine-3-carboxamide], the concentration for half-maximal inhibition (IC50) in assay [1] came out at 0.11 µM. Besides, in assay [2], the IC50 was > 50 µM and the “Ratio of JAK3 IC50 to IRAK4 IC50” value is given as >455.

`CC(C)Nc1c(C(=O)NC[C@@H](F)C(C)(C)O)cnn2cccc12` [Example 96, (R)—N-(2-fluoro-3-hydroxy-3-methylbutyl)-4-(isopropylamino)pyrrolo[1,2-b]pyridazine-3-carboxamide]: the IC50 in assay [1] is 0.74 µM. In addition, in assay [2], the half-inhibitory concentration (IC50) was > 50 µM and the “Ratio of JAK3 IC50 to IRAK4 IC50” value is >68.

For the compound `CNC(=O)c1cncc(-c2cc3ncc(C(=O)NC[C@@H](F)C(C)(C)O)c(NC(C)C)n3n2)c1` [Example 156, (R)—N-(2-fluoro-3-hydroxy-3-methylbutyl)-7-(isopropylamino)-2-(5-(methylcarbamoyl)pyridin-3-yl)pyrazolo[1,5-a]pyrimidine-6-carboxamide], in assay [1], the IC50 turned out to be 0.91 µM. In assay [2], the IC50 is > 10 µM and the “Ratio of JAK3 IC50 to IRAK4 IC50” value is listed as >11.

As for `CC(C)Nc1c(C(=O)NC[C@@H](F)C(C)(C)O)cnn2cc(Nc3ncc(C#N)cc3Cl)cc12` [Example 42, (R)-6-((3-chloro-5-cyanopyridin-2-yl)amino)-N-(2-fluoro-3-hydroxy-3-methylbutyl)-4-(isopropylamino)pyrrolo[1,2-b]pyridazine-3-carboxamide], in assay [1], the half-inhibitory concentration (IC50) worked out at 0.026 µM. Also, in assay [2], the half-maximal inhibitory concentration (IC50) is > 50 µM and the “Ratio of JAK3 IC50 to IRAK4 IC50” value is listed as >1923.

On to `CC(C)Nc1c(C(=O)NC[C@@H](F)C(C)(C)O)cnc2cc(-c3cccnc3F)nn12` [Example 125, (R)—N-(2-fluoro-3-hydroxy-3-methylbutyl)-2-(2-fluoropyridin-3-yl)-7-(isopropylamino)pyrazolo[1,5-a] pyrimidine-6-carboxamide], for which the IC50 in assay [1] is 0.048 µM; in assay [2] it was > 10 µM. Moreover, in assay [2], the “Ratio of JAK3 IC50 to IRAK4 IC50” value is listed as >208.

For `CC(C)Nc1c(C(=O)NC[C@@H](F)C(C)(C)O)cnn2cc(-c3ccncc3)nc12` [Example 100, (R)—N-(2-fluoro-3-hydroxy-3-methylbutyl)-8-(isopropylamino)-2-(pyridin-4-yl)imidazo[1,2-b]pyridazine-7-carboxamide], in assay [1], the IC50 was 0.015 µM. Also, in assay [2], the half-maximal inhibitory concentration (IC50) was > 50 µM and the “Ratio of JAK3 IC50 to IRAK4 IC50” value is >3333.

Consider `CC(C)Nc1c(C(=O)NC[C@@H](F)C(C)(C)O)cnn2cc(-c3cnn4cc(Cl)cnc34)cc12` [Example 38, (R)-6-(6-chloropyrazolo[1,5-a]pyrimidin-3-yl)-N-(2-fluoro-3-hydroxy-3-methylbutyl)-4-(isopropylamino)pyrrolo[1,2-b]pyridazine-3-carboxamide], for which, in assay [1], the IC50 came out at 0.039 µM. Also, in assay [2], the IC50 was > 9.9 µM and the “Ratio of JAK3 IC50 to IRAK4 IC50” value was >254.

Take `CC(C)(O)CCNc1c(C(=O)NC[C@@H](F)C(C)(C)O)cnn2cc(-c3cccnc3)cc12` [Example 25, (R)—N-(2-fluoro-3-hydroxy-3-methylbutyl)-4-((3-hydroxy-3-methylbutyl)amino)-6-(pyridin-3-yl) pyrrolo[1,2-b]pyridazine-3-carboxamide]: the IC50 in assay [1] was determined as 0.28 µM. In assay [2], the IC50 was > 50 µM and the “Ratio of JAK3 IC50 to IRAK4 IC50” value is >179.

As for `COC(=O)c1cncc(-c2cc3ncc(C(=O)NC[C@@H](F)C(C)(C)O)c(NC(C)C)n3n2)c1` [Example 149, methyl (R)-5-(6-((2-fluoro-3-hydroxy-3-methylbutyl)carbamoyl)-7-(isopropylamino)pyrazolo[1,5-a]pyrimidin-2-yl)nicotinate], the half-inhibitory concentration (IC50) in assay [1] turned out to be 0.21 µM. In assay [2], the IC50 is > 50 µM and the “Ratio of JAK3 IC50 to IRAK4 IC50” value was >238.

For `COc1cccc(-c2cc3ncc(C(=O)NC[C@@H](F)C(C)(C)O)c(NC(C)C)n3n2)n1` [Example 144, (R)—N-(2-fluoro-3-hydroxy-3-methylbutyl)-7-(isopropylamino)-2-(6-methoxypyridin-2-yl)pyrazolo[1,5-a] pyrimidine-6-carboxamide], the IC50 in assay [1] worked out at 1.4 µM. Moreover, in assay [2], the 50% inhibitory concentration (IC50) is > 50 µM and the “Ratio of JAK3 IC50 to IRAK4 IC50” value is on record as >36.

For the compound `CC(C)Nc1c(C(=O)NC[C@@H](F)C(C)(C)O)cnc2cc(-c3ccccn3)nn12` [Example 152, (R)—N-(2-fluoro-3-hydroxy-3-methylbutyl)-7-(isopropylamino)-2-(pyridin-2-yl)pyrazolo[1,5-a]pyrimidine-6-carboxamide], in assay [1], the 50% inhibitory concentration (IC50) came to 0.16 µM. Moreover, in assay [2], the concentration for half-maximal inhibition (IC50) was > 10 µM and the “Ratio of JAK3 IC50 to IRAK4 IC50” value is >63.

`CC(C)(O)CCNc1c(C(=O)NC[C@@H](F)C(C)(C)O)cnn2cc(-c3ccc(F)nc3)cc12` [Example 21, (R)—N-(2-fluoro-3-hydroxy-3-methylbutyl)-6-(6-fluoropyridin-3-yl)-4-((3-hydroxy-3-methylbutyl)amino)pyrrolo[1,2-b] pyridazine-3-carboxamide]: the concentration for half-maximal inhibition (IC50) in assay [1] is 0.17 µM. Further, in assay [2], the IC50 was > 50 µM and the “Ratio of JAK3 IC50 to IRAK4 IC50” value is on record as >294.

Regarding `CC(C)(O)[C@H](F)CNC(=O)c1cnn2cc(-c3ccncc3)cc2c1NC1CCOCC1` [Example 9, (R)—N-(2-fluoro-3-hydroxy-3-methylbutyl)-6-(pyridin-4-yl)-4-((tetrahydro-2H-pyran-4-yl)amino) pyrrolo[1,2-b] pyridazine-3-carboxamide], the IC50 in assay [1] was 0.017 µM; in assay [2], > 50 µM. The “Ratio of JAK3 IC50 to IRAK4 IC50” value in assay [2] is reported as >2941.

For the compound `CC(C)Nc1c(C(=O)NC[C@@H](F)C(C)(C)O)cnn2cc(-c3cccnc3)nc12` [Example 99, (R)—N-(2-fluoro-3-hydroxy-3-methylbutyl)-8-(isopropylamino)-2-(pyridin-3-yl) imidazo[1,2-b]pyridazine-7-carboxamide], the IC50 in assay [1] is 0.066 µM. In addition, in assay [2], the IC50 was > 10 µM and the “Ratio of JAK3 IC50 to IRAK4 IC50” value is >152.

Regarding `CC(C)Nc1c(C(=O)NC[C@@H](F)C(C)(C)O)cnn2cc(-c3ccc(F)cc3)cc12` [Example 13, (R)—N-(2-fluoro-3-hydroxy-3-methylbutyl)-6-(4-fluorophenyl)-4-(isopropylamino)pyrrolo[1,2-b]pyridazine-3-carboxamide], the 50% inhibitory concentration (IC50) in assay [1] is 0.029 µM. Also, in assay [2], the IC50 is > 50 µM and the “Ratio of JAK3 IC50 to IRAK4 IC50” value is recorded as >1724.

Regarding `CC(C)Nc1c(C(=O)N[C@H]2C[C@H](C(C)(C)O)C2)cnn2cc(-c3ccc(F)nc3)nc12` [Example 114, 2-(6-fluoropyridin-3-yl)-N-((1r,3r)-3-(2-hydroxypropan-2-yl)cyclobutyl)-8-(isopropylamino)imidazo[1,2-b]pyridazine-7-carboxamide], the IC50 in assay [1] was found to be 0.84 µM. In assay [2], the IC50 is > 50 µM and the “Ratio of JAK3 IC50 to IRAK4 IC50” value was >60.

Consider `CC(C)Nc1c(C(=O)NC[C@@H](F)C(C)(C)O)cnc2cc(-c3cccc(Cl)n3)nn12` [Example 153, (R)-2-(6-chloropyridin-2-yl)-N-(2-fluoro-3-hydroxy-3-methylbutyl)-7-(isopropylamino) pyrazolo[1,5-a]pyrimidine-6-carboxamide], for which the IC50 in assay [1] worked out at 1.23 µM. Also, in assay [2], the IC50 was > 10 µM and the “Ratio of JAK3 IC50 to IRAK4 IC50” value is >8.

On to `CC(C)Nc1c(C(=O)NC[C@@H](F)C(C)(C)O)cnn2cc(-c3ccnc(N4CCOCC4)c3F)cc12` [Example 53, (R)-6-(3-fluoro-2-morpholinopyridin-4-yl)-N-(2-fluoro-3-hydroxy-3-methylbutyl)-4-(isopropylamino)pyrrolo[1,2-b]pyridazine-3-carboxamide], for which the IC50 in assay [1] worked out at 0.1 µM. Also, in assay [2], the IC50 was ~50 µM and the “Ratio of JAK3 IC50 to IRAK4 IC50” value is on record as ~500.

On to `Cc1cncc(-c2cc3ncc(C(=O)NC[C@@H](F)C(C)(C)O)c(NC(C)C)n3n2)c1` [Example 146, (R)—N-(2-fluoro-3-hydroxy-3-methylbutyl)-7-(isopropylamino)-2-(5-methylpyridin-3-yl)pyrazolo[1,5-a]pyrimidine-6-carboxamide], for which the 50% inhibitory concentration (IC50) in assay [1] turned out to be 0.48 µM. In assay [2], the IC50 is > 50 µM and the “Ratio of JAK3 IC50 to IRAK4 IC50” value was >104.

With `COc1cc(-c2cc3ncc(C(=O)NC[C@@H](F)C(C)(C)O)c(NC(C)C)n3n2)ccn1` [Example 148, (R)—N-(2-fluoro-3-hydroxy-3-methylbutyl)-7-(isopropylamino)-2-(2-methoxypyridin-4-yl)pyrazolo[1,5-a]pyrimidine-6-carboxamide], in assay [1], the half-maximal inhibitory concentration (IC50) turned out to be 0.061 µM. Also, in assay [2], the IC50 was > 10 µM and the “Ratio of JAK3 IC50 to IRAK4 IC50” value is recorded as >164.
